SMILES strings stand for the structures.

By melting point is commonly meant the temperature of the solid-liquid transition.

As for `COc1ccc(C(=O)Nc2cc(OC)c(OC)cc2C(=O)NCCN2CCN(C)CC2)cc1` [Compound 61, 4,5-dimethoxy-2-(4-methoxybenzamido)-N-(2-(4-methylpiperazin-1-yl)ethyl)benzamide], the melting point was 70 °C.

`O=C(Nc1ccccc1C(=O)NCCN1CCOCC1)c1cccc([N+](=O)[O-])c1` [Compound 146, N-(2-morpholinoethyl)-2-(3-nitrobenzamido)benzamide] came in with a melting point of 147 to 149 °C.

Molecule `COc1cc(NC(=O)c2cccnc2)c(C(=O)NCCN2CCN(C)CC2)c(OC)c1OC` [Compound 65, N-(3,4,5-trimethoxy-2-((2-(4-methylpiperazin-1-yl)ethyl)carbamoyl)phenyl)nicotinamide] had a melting point of 143 °C.

The molecule `COc1cc(NC(=O)c2ccccc2F)c(C(=O)NCCN2CCOCC2)cc1OC` [Compound 19, 2-(2-fluorobenzamido)-4,5-dimethoxy-N-(2-morpholinoethyl) benzamide] had a melting point of 136 °C.

For `COc1cccc(C(=O)Nc2c(OC)cccc2C(=O)NCCc2ccccc2)c1` [Compound 91, 3-methoxy-2-(3-methoxybenzamido)-N-phenethylbenzamide], the melting point was in the range of 100 to 102 °C.

For the molecule `COc1ccc(C(=O)Nc2ccccc2C(=O)NCCN2CCN(C)CC2)cc1` [Compound 54, 2-(4-methoxybenzamido)-N-(2-(4-methylpiperazin-1-yl)ethyl) benzamide], the melting point amounted to 114 °C.

In turn, `COc1cccc(C(=O)Nc2c(OC)cccc2C(=O)NCCN2CCOCC2)c1` [Compound 26, 3-methoxy-2-(3-methoxybenzamido)-N-(2-morpholinoethyl) benzamide] came in with a melting point of 110 to 113 °C.

Molecule `O=C(NCCCc1ccccc1)c1ccccc1NC(=O)c1cccc2ccccc12` [Compound 97, N-(2-((3-phenylpropyl)carbamoyl)phenyl)-1-naphthamide] displayed a melting point of 98 to 100 °C.

On to `O=C(NCCN1CCNCC1)c1ccccc1NC(=O)c1c(F)cccc1F` [Compound 44, 2,6-difluoro-N-(2-((2-(piperazin-1-yl)ethyl)carbamoyl)phenyl) benzamide], for which the melting point is 79 °C.

The molecule `COc1cccc(C(=O)NCCCN2CCOCC2)c1NC(=O)c1ccc2ccccc2c1` [Compound 121, N-(2-methoxy-6-(3-morpholinopropylcarbamoyl)phenyl)-2-naphthamide] had a melting point of 140 to 142 °C.

Take `CN1CCN(CCNC(=O)c2ccccc2NC(=O)c2ccc([N+](=O)[O-])cc2)CC1` [Compound 48, N-(2-(4-methylpiperazin-1-yl)ethyl)-2-(4-nitrobenzamido) benzamide]: the melting point was found to be 122 °C.

As for `COc1ccc(C(=O)Nc2ccncc2C(=O)NCCN2CCN(C)CC2)cc1` [Compound 116, 4-(4-methoxybenzamido)-N-(2-(4-methylpiperazin-1-yl)ethyl)nicotinamide], the melting point fell in the range of 83 to 85 °C.

`CN1CCN(CCNC(=O)c2ccccc2NC(=O)c2ccc(OC(F)(F)F)cc2F)CC1` [Compound 115, 2-fluoro-N-(2-((2-(4-methylpiperazin-1-yl)ethyl)carbamoyl)phenyl)-4-(trifluoromethoxy)benzamide] showed a melting point of 69 to 71 °C.

On to `CN1CCN(CCCNC(=O)c2ccccc2NC(=O)c2cccc3ccccc23)CC1` [Compound 68, N-(2-((3-(4-methylpiperazin-1-yl)propyl)carbamoyl)phenyl)-1-naphthamide], for which the melting point lay within 98 to 100 °C.

The molecule `COc1ccc(C(=O)Nc2c(OC)cccc2C(=O)NCCN2CCOCC2)c(OC)c1` [Compound 29, 2-(2,4-dimethoxybenzamido)-3-methoxy-N-(2-morpholinoethyl) benzamide] came in with a melting point of 103 to 106 °C.

In turn, `O=C(NCCCN1CCOCC1)c1ccccc1NC(=O)c1cccc2ccccc12` [Compound 36, N-(2-((3-morpholinopropyl)carbamoyl)phenyl)-1-naphthamide] had a melting point of 110 to 112 °C.

The molecule `O=C(Nc1cccc(F)c1C(=O)NCCc1ccccc1)c1ccccc1F` [Compound 81, 2-fluoro-6-(2-fluorobenzamido)-N-phenethylbenzamide] showed a melting point of 96 to 98 °C.

In turn, `COc1cc(C(=O)NCCCc2ccccc2)c(NC(=O)c2ccccc2F)c(OC)c1OC` [Compound 124, 2-(2-fluorobenzamido)-3,4,5-trimethoxy-N-(3-phenylpropyl)benzamide] yielded a melting point of 145 to 147 °C.

`COc1ccc(C(=O)Nc2cc(OC)c(OC)c(OC)c2C(=O)NCCN2CCOCC2)cc1` [Compound 27, 2,3,4-trimethoxy-6-(4-methoxybenzamido)-N-(2-morpholinoethyl)benzamide]: the melting point is 143 °C.

Regarding `O=C(Nc1ccccc1C(=O)NCCN1CCNCC1)c1cc(F)cc(F)c1` [Compound 43, 3,5-difluoro-N-(2-((2-(piperazin-1-yl)ethyl)carbamoyl)phenyl) benzamide], the melting point came to 68 °C.

In the case of `O=C(Nc1ccccc1C(=O)NCCN1CCOCC1)c1ccc([N+](=O)[O-])cc1` [Compound 148, N-(2-morpholinoethyl)-2-(4-nitrobenzamido)benzamide], the melting point was 147 to 149 °C.

As for `COc1cccc(C(=O)Nc2ccccc2C(=O)NCCN2CCN(C)CC2)c1` [Compound 101, 2-(3-methoxybenzamido)-N-(2-(4-methylpiperazin-1-yl)ethyl)benzamide], the melting point is 113 to 115 °C.

Regarding `O=C(Nc1ccccc1C(=O)NCCCc1ccccc1)c1ccccc1F` [Compound 95, 2-fluoro-N-(2-((3-phenylpropyl)carbamoyl)phenyl)benzamide], the melting point was 61 to 63 °C.

For the molecule `COc1cc(NC(=O)c2ccccc2F)c(C(=O)NCCN2CCOCC2)c(OC)c1OC` [Compound 20, 6-(2-fluorobenzamido)-2,3,4-trimethoxy-N-(2-morpholinoethyl) benzamide], the melting point stood at 141 °C.

For `O=C(Nc1ccccc1C(=O)NCCN1CCNCC1)c1ccc(Cl)cc1` [Compound 39, 2-(4-chlorobenzamido)-N-(2-(piperazin-1-yl)ethyl)benzamide], the melting point was found to be 60 °C.

As for `COc1cc(NC(=O)c2ccccc2F)c(C(=O)NCCN2CCN(C)CC2)c(OC)c1OC` [Compound 60, 6-(2-fluorobenzamido)-2,3,4-trimethoxy-N-(2-(4-methylpiperazin-1-yl)ethyl)benzamide], the melting point stood at 130 °C.

Take `COc1cccc(C(=O)NCCN2CCOCC2)c1NC(=O)c1ccc(F)cc1` [Compound 18, 2-(4-fluorobenzamido)-3-methoxy-N-(2-morpholinoethyl) benzamide]: the melting point fell in the range of 148 to 151 °C.

In turn, `COc1cccc(C(=O)NCCc2ccccc2)c1NC(=O)c1ccc2ccccc2c1` [Compound 119, N-(2-methoxy-6-(phenethylcarbamoyl)phenyl)-2-naphthamide] showed a melting point of 188 to 190 °C.

As for `COc1cc(NC(=O)c2cccnc2)c(C(=O)NCCN2CCOCC2)c(OC)c1OC` [Compound 33, N-(3,4,5-trimethoxy-2-((2-morpholinoethyl)carbamoyl)phenyl) nicotinamide], the melting point turned out to be 155 °C.

Consider `COc1cccc(C(=O)NCCN2CCOCC2)c1NC(=O)c1cccc(F)c1` [Compound 17, 2-(3-fluorobenzamido)-3-methoxy-N-(2-morpholinoethyl) benzamide], for which the melting point lay in the range of 128 to 131 °C.

`COc1cccc(C(=O)NCCN2CCOCC2)c1NC(=O)c1ccccc1F` [Compound 145, 2-(2-fluorobenzamido)-3-methoxy-N-(2-morpholinoethyl)benzamide]: the melting point is 105 to 107 °C.

For `COc1ccccc1C(=O)Nc1c(OC)cccc1C(=O)NCCN1CCOCC1` [Compound 25, 3-methoxy-2-(2-methoxybenzamido)-N-(2-morpholinoethyl) benzamide], the melting point was 105 to 107 °C.

With `O=C(Nc1ccccc1C(=O)NCCCc1ccccc1)c1ccc2ccccc2c1` [Compound 98, N-(2-((3-phenylpropyl)carbamoyl)phenyl)-2-naphthamide], the melting point is 99 to 101 °C.

`COc1ccc(C(=O)Nc2ccccc2C(=O)NCCN2CCN(C)CC2)c(F)c1` [Compound 58, 2-fluoro-4-methoxy-N-(2-((2-(4-methylpiperazin-1-yl)ethyl)carbamoyl)phenyl)benzamide] gave a melting point of 110 to 112 °C.

`CN1CCN(CCNC(=O)c2ccccc2NC(=O)c2ccccc2C(F)(F)F)CC1` [Compound 117]: the melting point was in the range of 124 to 126 °C.

Molecule `CN1CCN(CCNC(=O)c2ccccc2NC(=O)c2cccc(Cl)c2)CC1` [Compound 51, 2-(3-chlorobenzamido)-N-(2-(4-methylpiperazin-1-yl)ethyl) benzamide] returned a melting point of 104 °C.

Regarding `COc1cc(NC(=O)c2ccccc2F)c(C(=O)NCCN2CCN(C)CC2)cc1OC` [Compound 59, 2-(2-fluorobenzamido)-4,5-dimethoxy-N-(2-(4-methylpiperazin-1-yl)ethyl)benzamide], the melting point came to 60 °C.

For `O=C(Nc1cc(F)ccc1C(=O)NCCN1CCOCC1)c1ccccc1F` [Compound 14, 4-fluoro-2-(2-fluorobenzamido)-N-(2-morpholinoethyl) benzamide], the melting point fell in the range of 104 to 106 °C.

`O=C(NCCN1CCOCC1)c1ccccc1NC(=O)c1ccccc1[N+](=O)[O-]` [Compound 147, N-(2-morpholinoethyl)-2-(2-nitrobenzamido)benzamide] showed a melting point of 138 to 140 °C.

On to `COc1ccccc1C(=O)Nc1ccccc1C(=O)NCCN1CCN(C)CC1` [Compound 53, 2-methoxy-N-(2-((2-(4-methylpiperazin-1-yl)ethyl)carbamoyl)phenyl)benzamide], for which the melting point was 111 °C.

With `COc1ccc(C(=O)Nc2ccncc2C(=O)NCCN2CCOCC2)cc1` [Compound 113, 4-(4-methoxybenzamido)-N-(2-morpholinoethyl)nicotinamide], the melting point lay in the range of 105 to 107 °C.

The molecule `CN1CCN(CCNC(=O)c2ccccc2NC(=O)c2ccc(Cl)cc2)CC1` [Compound 52, 2-(4-chlorobenzamido)-N-(2-(4-methylpiperazin-1-yl)ethyl) benzamide] returned a melting point of 99 °C.

Source of the values: US10273218B2, “BCL-3 inhibitors” (University College Cardiff Consultants Limited, priority 2014, dated 2019).
